In brackets after ≈: the same amount, converted by molar mass. Read-outs that look alike come from different tables or passages of the source.
Experiments:
[1] = test system: Cryptococcus deuterogattii; test: MIC/MFC broth microdilution (CLSI); settings: Cryptococcus deuterogattii;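 also: broth microdilution per CLSI M27-Ed4. MFC is the lowest concentration yielding no colonies when MIC broths are subcultured onto SDA plates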
Description: (§1) Antifungal susceptibility was determined by broth microdilution according to the CLSI guidelines described in M27-Ed4 ([16]). […] MFC was determined by back-plating drug-treated cultures from MIC broths onto SDA plates. The MFC was defined as the lowest concentration from which no colonies could be cultured.

Cryptococcus neoformans = test: MIC/MFC broth microdilution (CLSI); settings: Cryptococcus neoformans;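 also: susceptibility testing followed the CLSI M27-Ed4 broth microdilution document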
Description: as §1

Trichophyton rubrum = test: MIC/MFC broth microdilution (CLSI); settings: Trichophyton rubrum
Description: as §1

Aspergillus flavus [2] = test: MIC/MFC broth microdilution (CLSI); settings: ATCC204304
Description: as §1

Candida albicans = test: checkerboard drug interaction (FICI, MICc);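 as to all read-outs here: antifungal plus FPPS inhibitor combinations on Candida albicans tested by a simplified diagonal checkerboard screen, with FICI calculated under the Loewe additivity model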; format: cell-based; settings: C. albicans; for INH FD (MIC-MICc fold decrease): fold decrease of inhibitor MIC
Description: (§2) Drug interactions between antifungals and FPPS inhibitors were investigated using a simplified checkerboard diagonal screening method ([45]). […] FICIs were determined according to the Loewe additivity model ([17]).

Aspergillus flavus [3] = test: checkerboard drug interaction (FICI, MICc);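 also: simplified diagonal checkerboard screen pairing azole antifungals with FPPS inhibitors, FICI calculated under the Loewe additivity model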; format: cell-based; set-up: INH MICc (KET:INH) / INH MICc (FLC:INH): unit not given beside the values; settings: A. flavus
Aspergillus fumigatus [4] = test: MIC/MFC broth microdilution (CLSI); settings: ATCC204305
Description: as §1

eight fungal species = test: MIC/MFC summary across the eight fungal species of Table 1; format: cell-based
Description: The antifungal activity of these compounds was evaluated according to CLSI guidelines ([16]).

Candida glabrata = test: checkerboard drug interaction (FICI, MICc);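 as to all read-outs here: simplified diagonal checkerboard screen pairing antifungals with FPPS inhibitors, FICI calculated under the Loewe additivity model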; format: cell-based; settings: C. glabrata; for INH FD (MIC-MICc fold decrease): fold decrease of inhibitor MIC
Description: as §2

Aspergillus fumigatus [5] = test: checkerboard drug interaction (FICI, MICc);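 as to all read-outs here: simplified diagonal checkerboard screen pairing antifungals with FPPS inhibitors against Aspergillus fumigatus, with FICI calculated under the Loewe additivity model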; format: cell-based; settings: A. fumigatus; for INH FD (MIC-MICc fold decrease): fold decrease of inhibitor MIC
Description: as §2

[6] = FLC:INH combination, MIC of the inhibitor in combination with FLC
[7] = FLC:INH combination, fold decrease of FLC MIC
[8] = ITR:INH combination, MIC of the inhibitor in combination with ITR
[9] = ITR:INH combination, fold decrease of ITR MIC
[10] = KET:INH combination, MIC of the inhibitor in combination with KET
[11] = KET:INH combination, fold decrease of KET MIC

CCCCCCCCCCN1CCC[C@H]1C(=O)N[C@@H](CC(=O)OC)C(=O)OC [dmPLA10]
MFC [1]: 128 µg/mL (≈ 321 µM)
MIC [1]: 16 µg/mL (≈ 40.1 µM)
MFC (Cryptococcus neoformans): 64 µg/mL (≈ 161 µM)
MIC (Cryptococcus neoformans): 16 µg/mL (≈ 40.1 µM)
MFC (Trichophyton rubrum): > 128 µg/mL
MIC (Trichophyton rubrum): 8 µg/mL (≈ 20.1 µM)
MFC (Aspergillus flavus [2]): 64 µg/mL (≈ 161 µM)
MIC (Aspergillus flavus [2]): 64 µg/mL (≈ 161 µM)
FICI (Candida albicans; FLC:INH combination): 1.5
INH MICc (Candida albicans; [6]): 8
FLC FD (MIC-MICc fold decrease) (Candida albicans; [7]): 1
INH FD (MIC-MICc fold decrease) (Candida albicans; FLC:INH combination): 2
FICI (Candida albicans; ITR:INH combination): 0.75
INH MICc (Candida albicans; [8]): 4
ITR FD (MIC-MICc fold decrease) (Candida albicans; [9]): 2
INH FD (MIC-MICc fold decrease) (Candida albicans; ITR:INH combination): 4
FICI (Candida albicans; KET:INH combination): 0.75
INH MICc (Candida albicans; [10]): 4
KET FD (MIC-MICc fold decrease) (Candida albicans; [11]): 2
INH FD (MIC-MICc fold decrease) (Candida albicans; KET:INH combination): 4
FICI (FLC:INH) (Aspergillus flavus [3]; Fractional Inhibitory Concentration Index, fluconazole + inhibitor): 2
FICI (ITR:INH) (Aspergillus flavus [3]; Fractional Inhibitory Concentration Index, itraconazole + inhibitor): 1.03
FICI (KET:INH) (Aspergillus flavus [3]; Fractional Inhibitory Concentration Index, ketoconazole + inhibitor): 1.5
INH MICc (FLC:INH) (Aspergillus flavus [3]; MIC of the inhibitor in combination with fluconazole): 64
INH MICc (ITR:INH) (Aspergillus flavus [3]; MIC of the inhibitor in combination with itraconazole): 2
INH MICc (KET:INH) (Aspergillus flavus [3]; MIC of the inhibitor in combination with ketoconazole): 32
FLC FD (FLC:INH) (Aspergillus flavus [3]; MIC-MICc fold decrease of fluconazole, negative = increase): 1
ITR FD (ITR:INH) (Aspergillus flavus [3]; MIC-MICc fold decrease of itraconazole, negative = increase): 1
KET FD (KET:INH) (Aspergillus flavus [3]; MIC-MICc fold decrease of ketoconazole, negative = increase): 1
INH FD (FLC:INH) (Aspergillus flavus [3]; MIC-MICc fold decrease of the inhibitor, with fluconazole): 1
INH FD (ITR:INH) (Aspergillus flavus [3]; MIC-MICc fold decrease of the inhibitor, with itraconazole): 32
INH FD (KET:INH) (Aspergillus flavus [3]; MIC-MICc fold decrease of the inhibitor, with ketoconazole): 2
MFC (Aspergillus fumigatus [4]): 128 µg/mL (≈ 321 µM)
MIC (Aspergillus fumigatus [4]): 32 µg/mL (≈ 80.3 µM)
Geometric mean MFC (eight fungal species; across eight species): 64.0 µg/mL
MFC (eight fungal species; across eight species, read-out: Geometric mean MFC): 64 µg/mL (≈ 161 µM)
MIC (eight fungal species; geometric mean across eight species, read-out: GM fungal MIC): 20.7 µg/mL (≈ 51.9 µM)
MIC (eight fungal species; read-out: Geometric mean MIC): 20.7 µg/mL (≈ 51.9 µM)
FICI (Candida glabrata; FLC:INH combination): ≥4
INH MICc (Candida glabrata; [6]): 16
FLC FD (MIC-MICc fold decrease) (Candida glabrata; [7]): 1
INH FD (MIC-MICc fold decrease) (Candida glabrata; FLC:INH combination): 1
FICI (Candida glabrata; ITR:INH combination): 1.5
INH MICc (Candida glabrata; [8]): 4
ITR FD (MIC-MICc fold decrease) (Candida glabrata; [9]): 2
INH FD (MIC-MICc fold decrease) (Candida glabrata; ITR:INH combination): 4
FICI (Candida glabrata; KET:INH combination): 3
INH MICc (Candida glabrata; [10]): 8
KET FD (MIC-MICc fold decrease) (Candida glabrata; [11]): 1
INH FD (MIC-MICc fold decrease) (Candida glabrata; KET:INH combination): 2
FICI (Aspergillus fumigatus [5]; FLC:INH combination): 1.06
FLC MICc (Aspergillus fumigatus [5]; FLC:INH combination, MIC of FLC in combination with the inhibitor): 8
INH MICc (Aspergillus fumigatus [5]; [6]): 16
FLC FD (MIC-MICc fold decrease) (Aspergillus fumigatus [5]; [7]): 16
INH FD (MIC-MICc fold decrease) (Aspergillus fumigatus [5]; FLC:INH combination): 1
FICI (Aspergillus fumigatus [5]; ITR:INH combination): 0.63
ITR MICc (Aspergillus fumigatus [5]; ITR:INH combination, MIC of ITR in combination with the inhibitor): 0.063
INH MICc (Aspergillus fumigatus [5]; [8]): 2
ITR FD (MIC-MICc fold decrease) (Aspergillus fumigatus [5]; [9]): 2
INH FD (MIC-MICc fold decrease) (Aspergillus fumigatus [5]; ITR:INH combination): 8
FICI (Aspergillus fumigatus [5]; KET:INH combination): 2.25
KET MICc (Aspergillus fumigatus [5]; KET:INH combination, MIC of KET in combination with the inhibitor): 1

— article PMC12892976, “Alkylation-based optimization of antifungal FPPS inhibitors yields a potent, broad-spectrum lipophilic zoledronate derivative” (mBio, 2025)
